Test results: patent US11395857B2, “Radiolabeled melanocortin 1 receptor-specific alpha-melanocyte-stimulating hormone analogues for imaging or therapy” (PROVINCIAL HEALTH SERVICES AUTHORITY, priority 2018, dated 2022)

What was measured:
[1] = In vivo stability in mouse urine at 1 h p.i. (radio-HPLC); parameters: species or system C57BL/6J mice
Procedure: All animal experiments were conducted in according to the guidelines established by Canadian Council on Animal Care and approved by Animal Ethics Committee of the University of British Columbia. Mice were housed under pathogen-free conditions and kept on twelve hours light and twelve hours dark cycle in the Animal Research Centre, BC Cancer Research Centre, Vancouver, Canada. C57BL/6J mice were anesthetized by inhalation with 2% isoflurane in 2.0 L/min of oxygen, and approximately 4-6 MBq of [^68Ga]Ga-CCZ01099 or [^68Ga]Ga-CCZ01048 was injected intravenously. The mice were allowed to recover and roam freely in their cages. At 1 h post-injection (p.i.), the mice were euthanized by CO2 inhalation and their urine was collected and analyzed on HPLC for metabolite using the conditions described above. In vivo urine stability of [^68Ga]Ga-CCZ01099 and [^68Ga]Ga-CCZ01048 were 34.0±10.4% and ≥98.0% (n≥3), respectively.
The in vivo stability tests in mouse urine were performed as described in Example 1. […] With systematic reduction in the number of N-methylations for the αMSH analogues, a decrease in in vivo stability was observed.

B16F10 cells = test: In vitro competition binding assay on B16-F10 cells vs 125I-[Nle4,D-Phe7]-alpha-MSH; parameters: species or system Mus musculus; settings: natGa-coupled peptides
Procedure: The B16-F10 melanoma cell line (Mus musculus) used in the tumor model was obtained commercially from ATTC (CRL-6475). Cells were cultured in Dulbecco's Modified Eagle's Medium (DMEM, StemCell Technologies) supplemented by 10% FBS, 100 U/mL penicillin and 100 μg/mL streptomycin at 37° C. in a humidified incubator containing 5% CO2. Cells grown to roughly 90% confluence were washed with sterile phosphate-buffered saline (lx PBS, pH 7.4), followed by trypsinization. For tumour implantation, C57BL/6J mice were anesthetized by inhalation with 2% isoflurane in 2.0 L/min of oxygen, 2×10^6 B16-F10 cells were inoculated subcutaneously on right dorsal flank. Mice were imaged or used in biodistribution studies once the tumour reached 6-8 mm in diameter.
In vitro competitive binding assays were performed using B16-F10 cells and the cell culture method described in Example 1. 500,000 cells/well were seeded onto a 24 well poly-D-lysine coated plate (Corning) overnight. Growth media was removed, and reaction buffer containing 4.8 mg/mL HEPES, […] penicillin/[…] and 2 mg/mL BSA was added, and allowed to incubate with cells at 37° C. for at least an hour. Peptide of interest and ^125I-[Nle^4, D-Phe^7]-alpha-MSH (Perkin Elmer) were added to each well. The binding of ^125I-[Nle^4, D-Phe^7]-alpha-MSH was competed by non-radioactive gallium coupled CCZ01103, CCZ01104, CCZ01105, CCZ01106 or CCZ01114 at increasing concentrations from 0.5 pmol/mL to […]. The reaction mixture was incubated at 25° C. with moderate shaking for 1 h. After the incubation, the reaction mixture was removed, and cells were washed with ice-cold PBS twice. 0.25% Trypsin solution was used to harvest the cells and radioactivity was measured using a Wallac WIZARD2 gamma counter (Perkin Elmer).

SK-MEL-1 human melanoma = test: SPECT/CT imaging of mice bearing SK-MEL-1 human melanoma; assay type: in vivo, NRG mice; settings: 24 h p.i.
Procedure: SPECT/CT imaging experiments were conducted using the same conditions as described in Example 3. […] (FIG. 6).

B16-F10 tumours = settings: Zhang et al., 2017 Theranostics; cited from earlier work

In vivo urine stability, intact tracer [1] [%]	Tumour uptake / retention in SPECT images (SK-MEL-1 human melanoma)	SMILES	Binding affinity (comparison among the five analogues) (B16F10 cells)	Ki (B16F10 cells; n ≥ 3, read-out: Inhibition constants (Ki) on B16F10 cells) [nM]	Thyroid uptake on PET images (B16-F10 tumours)
82.5±1.8	–	CCCC[C@H](NC(=O)CN1CCC(NC(=O)CN2CCN(CC(=O)O)CCN(CC(=O)O)CCN(CC(=O)O)CC2)CC1)C(=O)N[C@H]1CC(=O)NCCCC[C@@H](C(N)=O)N(C)C(=O)[C@H](Cc2c[nH]c3ccccc23)NC(=O)[C@H](CCCNC(=N)N)N(C)C(=O)[C@@H](Cc2ccccc2)NC(=O)[C@H](Cc2c[nH]cn2)NC1=O [CCZ01106, DOTA-Pip-Nle-cyclo[Asp-His-D-Phe-(N-Me-Arg)-Trp-(N-Me-Lys)]—NH2]	highest binding affinity	1.5 ± 0.1	–
–	–	CCCC[C@H](NC(=O)CN1CCC(NC(=O)CN2CCN(CC(=O)O)CCN(CC(=O)O)CCN(CC(=O)O)CC2)CC1)C(=O)N[C@H]1CC(=O)NCCCC[C@@H](C(N)=O)NC(=O)[C@H](Cc2c[nH]c3ccccc23)NC(=O)[C@H](CCCNC(=N)N)N(C)C(=O)[C@@H](Cc2ccccc2)NC(=O)[C@H](Cc2c[nH]cn2)NC1=O [CCZ01114, DOTA-Pip-Nle-cyclo[Asp-His-D-Phe-(N-Me-Arg)-Trp-Lys]-NH2]	highest binding affinity	–	–
–	showed improved the tumour retention	CCCC[C@H](NC(=O)CN1CCC(NC(=O)[C@H](CCCCNC(=O)CN2CCN(CC(=O)O)CCN(CC(=O)O)CCN(CC(=O)O)CC2)NC(=O)CNC(=O)CCCc2ccc(I)cc2)CC1)C(=O)N[C@H]1CC(=O)NCCCC[C@@H](C(N)=O)N(C)C(=O)[C@H](Cc2c[nH]c3ccccc23)NC(=O)[C@H](CCCNC(=N)N)N(C)C(=O)[C@@H](Cc2ccccc2)NC(=O)[C@H](Cc2c[nH]cn2)NC1=O [CCZ01148]	–	–	–
≥ 98.0	–	CCCC[C@H](NC(=O)CN1CCC(NC(=O)CN2CCN(CC(=O)O)CCN(CC(=O)O)CCN(CC(=O)O)CC2)CC1)C(=O)N[C@H]1CC(=O)NCCCC[C@@H](C(N)=O)NC(=O)[C@H](Cc2c[nH]c3ccccc23)NC(=O)[C@H](CCCNC(=N)N)NC(=O)[C@@H](Cc2ccccc2)NC(=O)[C@H](Cc2c[nH]cn2)NC1=O [[^68Ga]Ga-CCZ01048, metal not drawn, reference compound]	–	–	thyroid uptake was clearly observed
